This passage reports IC50 results from ChEMBL document CHEMBL1127879, “A conformationally restrained series of AT1-selective angiotensin II antagonists” (Bioorg Med Chem Lett, 1994).

The structures appear in SMILES notation.

The experiment addresses T1, Angiotensin II receptor (AT-1) type-1 (Rattus norvegicus, UniProt P29089+P25095).
T1 sequence (P29089 whole entry): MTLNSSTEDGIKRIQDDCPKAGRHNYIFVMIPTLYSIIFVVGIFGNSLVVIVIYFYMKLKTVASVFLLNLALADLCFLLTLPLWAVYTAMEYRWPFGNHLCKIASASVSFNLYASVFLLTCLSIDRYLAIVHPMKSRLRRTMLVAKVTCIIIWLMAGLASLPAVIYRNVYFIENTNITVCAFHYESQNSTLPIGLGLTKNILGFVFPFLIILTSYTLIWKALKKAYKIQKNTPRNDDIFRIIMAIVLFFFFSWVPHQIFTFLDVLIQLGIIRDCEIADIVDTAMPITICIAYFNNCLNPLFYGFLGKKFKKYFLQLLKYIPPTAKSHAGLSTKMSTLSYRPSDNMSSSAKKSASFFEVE
T1 sequence (P25095 whole entry): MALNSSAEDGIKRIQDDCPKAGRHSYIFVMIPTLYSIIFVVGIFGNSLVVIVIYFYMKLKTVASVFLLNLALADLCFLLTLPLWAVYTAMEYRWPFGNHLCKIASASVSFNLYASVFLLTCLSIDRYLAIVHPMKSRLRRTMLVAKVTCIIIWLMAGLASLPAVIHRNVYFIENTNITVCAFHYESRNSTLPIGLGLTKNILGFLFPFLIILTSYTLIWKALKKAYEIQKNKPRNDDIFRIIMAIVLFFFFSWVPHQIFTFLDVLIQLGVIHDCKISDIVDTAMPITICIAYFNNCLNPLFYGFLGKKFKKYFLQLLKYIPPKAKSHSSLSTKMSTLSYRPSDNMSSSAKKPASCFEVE
Nature of the experiment: Binding affinity against Angiotensin II receptor, type 1 using [125I]Sar-Ile8-AII in rat liver membranes. Type of experiment: cell membranes, Membrane.

A word on the IC50: it is the concentration at which inhibition is half-maximal. Low readings indicate higher potency, high ones lower potency.

`Cc1cc(C)c2nc(C3CC3)n(C3CCc4cc(-c5ccccc5-c5nn[nH]n5)ccc43)c2n1` (stereo not drawn) came in with a 50% inhibitory concentration (IC50) of 0.2 nM. In other words, the sub-nanomolar range.
Turning to `CCc1nc2c(C)ccnc2n1C1CCc2cc(-c3ccccc3-c3nn[nH]n3)ccc21` (stereo not drawn), the 50% inhibitory concentration (IC50) is reported as 120 nM.
With `CCCc1nc2c(C)cc(C)nc2n1C1CCc2cc(-c3ccccc3-c3nn[nH]n3)ccc21` (stereo not drawn) the figure was 14 nM; with `CCc1nc2c(C)cc(C)nc2n1C1CCCCc2cc(-c3ccccc3-c3nn[nH]n3)ccc21` (stereo not drawn), 220 nM.
As to `CCc1nc2c(C)cc(C)nc2n1C1CCc2cc(-c3ccccc3-c3nn[nH]n3)ccc21` (stereo not drawn), the 50% inhibitory concentration (IC50) was 11 nM.
In turn, `CCc1nc2c(C)cc(C)nc2n1C1CCCc2cc(-c3ccccc3-c3nn[nH]n3)ccc21` (stereo not drawn) had an IC50 of 120 nM.
`CCCCc1nc2c(C)cc(C)nc2n1C1CCc2cc(-c3ccccc3-c3nn[nH]n3)ccc21` (stereo not drawn): the IC50 is reported as 30 nM.
Consider `Cc1cc(C)c2nc(C(C)C)n(C3CCc4cc(-c5ccccc5-c5nn[nH]n5)ccc43)c2n1` (stereo not drawn), for which the IC50 stood at 70 nM.
